Results taken from paper PMC7531004, “Discovery of gramicidin A analogues with altered activities by multidimensional screening of a one-bead-one-compound library” (Nature Communications, 2020).
Where a SMILES comes first, the peptide text is derived from it. [ ]: non-standard residue; d: D form. The star is where a group is joined. NHCH2CH2OH = OCCN*; For = O=C*

How the values were obtained:
[1] = tested on: Streptococcus pyogenes SSI-9; test: Antibacterial activity assay of bead-derived peptides (three concentrations); format: cell-based; parameters: key: +++: inhibition by the 640-fold diluted peptide solution; ++: inhibition by the 160-fold diluted solution; +: inhibition by the 40-fold diluted solution; -: no inhibition; conditions: S. pyogenes, bead-derived peptide solution, three concentrations
In short: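 Three stock dilutions per peptide (none, 4-fold, 16-fold in DMSO) are screened in 96-well format. The medium is blood-supplemented cation-adjusted MHB, inoculated with 2 × 10^5 CFU S. pyogenes SSI-9. Growth is read as cell precipitation at 18 h, 37 °C.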

[2] = cell viability/%
In short: (§1)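 First, library peptide stocks are diluted 250-fold in RPMI1640 with 10% heat-inactivated FBS. Next, they are mixed with P388 cells to give 1 × 10^4 cells/mL and incubated 92 h at 37 °C, 5% CO2. Finally, viability (%) is scored by WST-1 absorbance at 415 nm.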

[3] = H+/Na+ transport assay of bead-derived peptides (one-point); format: biochemical; parameters: key: relative activity; mean of two control wells = 1.00; conditions: bead-derived peptide solution, EYPC/EYPG LUVs;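 also: relative to parent gramicidin A activity set to 1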
In short: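 H+/Na+ transport is monitored through pyranine fluorescence in freshly extruded LUVs after a 30-min room-temperature vortex with each library peptide at a single concentration. Signals are normalized to detergent (Triton X-100) and untreated controls.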

[4] = tested on: P388 mouse leukemia cells; conditions: 92 h
In short: as §1

Row | Compound | antibacterial activity [1] | viability [2] [%] | H+/Na+ transport activity normalized against the value of 1 (1.00) [3] | cell viability/% [4] [%]
1 | CC(C)C[C@@H](NC(=O)[C@H](Cc1c[nH]c2ccccc12)NC(=O)[C@H](NC(=O)[C@H](Cc1c[nH]c2ccccc12)NC(=O)[C@@H](CC(C)C)NC(=O)[C@@H](NC(=O)[C@H](NC(=O)[C@H](C)NC(=O)[C@H](NC(=O)[C@H](C)NC(=O)CNC(=O)[C@@H](NC=O)C(C)C)[C@H](C)O)C(C)C)C(C)C)[C@H](C)O)C(=O)N[C@@H](Cc1c[nH]c2ccccc12)C(=O)N[C@@H](C(=O)N[C@@H](Cc1c[nH]c2ccccc12)C(=O)NCCO)C(C)C [compound 13245] (For-VGA[dT]A[dV]V[dL]W[dT]W[dL]W[dV]W-NHCH2CH2OH) | - | 100 | 1.07 | 
2 | CC(C)C[C@@H](NC(=O)[C@H](Cc1c[nH]c2ccccc12)NC(=O)[C@H](NC(=O)[C@@H](NC(=O)[C@H](NC(=O)[C@H](C)NC(=O)[C@H](NC(=O)[C@H](C)NC(=O)CNC(=O)[C@@H](NC=O)C(C)C)[C@H](C)O)C(C)C)C(C)C)C(C)C)C(=O)N[C@@H](Cc1c[nH]c2ccccc12)C(=O)N[C@H](CC(C)C)C(=O)N[C@@H](Cc1c[nH]c2ccccc12)C(=O)N[C@@H](C(=O)N[C@@H](Cc1c[nH]c2ccccc12)C(=O)NCCO)C(C)C [compound 4452] (For-VGA[dT]A[dV]V[dV]W[dL]W[dL]W[dV]W-NHCH2CH2OH) | - | 100 | 1.30 | 
3 | CNC(=O)C[C@@H](NC(=O)[C@H](Cc1c[nH]c2ccccc12)NC(=O)[C@H](NC(=O)[C@H](Cc1c[nH]c2ccccc12)NC(=O)[C@H](NC(=O)[C@H](Cc1c[nH]c2ccccc12)NC(=O)[C@H](NC(=O)[C@@H](NC(=O)[C@@H](CC(C)C)NC(=O)[C@H](C)NC(=O)[C@@H](CC(C)C)NC(=O)[C@H](C)NC(=O)CNC(=O)[C@@H](NC=O)C(C)C)C(C)C)C(C)C)C(C)C)C(C)C)C(=O)N[C@@H](Cc1c[nH]c2ccccc12)C(=O)NCCO [compound 10002] (For-VGA[dL]A[dL]V[dV]W[dV]W[dV]W[dD](NHMe)W-NHCH2CH2OH) | - | 100 | 1.01 | 
4 | CC(C)C[C@@H](NC(=O)[C@H](C)NC(=O)[C@H](NC(=O)[C@H](C)NC(=O)CNC(=O)[C@@H](NC=O)C(C)C)C(C)C)C(=O)N[C@H](C(=O)N[C@H](CC(C)C)C(=O)N[C@@H](Cc1c[nH]c2ccccc12)C(=O)N[C@@H](C(=O)N[C@@H](Cc1c[nH]c2ccccc12)C(=O)N[C@H](CC(C)C)C(=O)N[C@@H](Cc1c[nH]c2ccccc12)C(=O)N[C@@H](C(=O)N[C@@H](Cc1c[nH]c2ccccc12)C(=O)NCCO)[C@H](C)O)C(C)C)C(C)C [compound 2895] (For-VGA[dV]A[dL]V[dL]W[dV]W[dL]W[dT]W-NHCH2CH2OH) | - | 95.1 | 1.06 | 
5 | CC(C)C[C@@H](NC(=O)[C@H](Cc1c[nH]c2ccccc12)NC(=O)[C@@H](CC(C)C)NC(=O)[C@H](Cc1c[nH]c2ccccc12)NC(=O)[C@H](NC(=O)[C@H](Cc1c[nH]c2ccccc12)NC(=O)[C@H](NC(=O)[C@@H](NC(=O)[C@H](NC(=O)[C@H](C)NC(=O)[C@H](NC(=O)[C@H](C)NC(=O)CNC(=O)[C@@H](NC=O)C(C)C)C(C)C)C(C)C)C(C)C)C(C)C)[C@H](C)O)C(=O)N[C@@H](Cc1c[nH]c2ccccc12)C(=O)NCCO [compound 10042] (For-VGA[dV]A[dV]V[dV]W[dT]W[dL]W[dL]W-NHCH2CH2OH) | - | 100 | 1.06 | 
6 | CC(C)C[C@@H](NC(=O)[C@H](C)NC(=O)CNC(=O)[C@@H](NC=O)C(C)C)C(=O)N[C@@H](C)C(=O)N[C@@H](C(=O)N[C@H](C(=O)N[C@@H](C(=O)N[C@@H](Cc1c[nH]c2ccccc12)C(=O)N[C@H](CC(C)C)C(=O)N[C@@H](Cc1c[nH]c2ccccc12)C(=O)N[C@H](CC(C)C)C(=O)N[C@@H](Cc1c[nH]c2ccccc12)C(=O)N[C@H](CC(C)C)C(=O)N[C@@H](Cc1c[nH]c2ccccc12)C(=O)NCCO)C(C)C)C(C)C)C(C)C [compound 4495] (For-VGA[dL]A[dV]V[dV]W[dL]W[dL]W[dL]W-NHCH2CH2OH) | ++ |  | 1.26 | 3.5
7 | CC(C)C[C@@H](NC(=O)[C@H](C)NC(=O)CNC(=O)[C@@H](NC=O)C(C)C)C(=O)N[C@@H](C)C(=O)N[C@H](CC(C)C)C(=O)N[C@H](C(=O)N[C@H](CC(C)C)C(=O)N[C@@H](Cc1c[nH]c2ccccc12)C(=O)N[C@H](CC(C)C)C(=O)N[C@@H](Cc1c[nH]c2ccccc12)C(=O)N[C@H](CC(C)C)C(=O)N[C@@H](Cc1c[nH]c2ccccc12)C(=O)N[C@@H](C(=O)N[C@@H](Cc1c[nH]c2ccccc12)C(=O)NCCO)C(C)C)C(C)C [compound 10340] (For-VGA[dL]A[dL]V[dL]W[dL]W[dL]W[dV]W-NHCH2CH2OH) | - |  | 1.00 | 3.4
8 | CC(C)C[C@@H](NC(=O)[C@H](C)NC(=O)[C@H](NC(=O)[C@H](C)NC(=O)CNC(=O)[C@@H](NC=O)C(C)C)C(C)C)C(=O)N[C@H](C(=O)N[C@@H](C(=O)N[C@@H](Cc1c[nH]c2ccccc12)C(=O)N[C@H](CC(C)C)C(=O)N[C@@H](Cc1c[nH]c2ccccc12)C(=O)N[C@H](CC(C)C)C(=O)N[C@@H](Cc1c[nH]c2ccccc12)C(=O)N[C@@H](C(=O)N[C@@H](Cc1c[nH]c2ccccc12)C(=O)NCCO)C(C)C)C(C)C)C(C)C [compound 9535] (For-VGA[dV]A[dL]V[dV]W[dL]W[dL]W[dV]W-NHCH2CH2OH) | - |  | 1.16 | 3.8
9 | CC(C)C[C@@H](NC(=O)[C@H](C)NC(=O)CNC(=O)[C@@H](NC=O)C(C)C)C(=O)N[C@@H](C)C(=O)N[C@@H](C(=O)N[C@H](C(=O)N[C@@H](C(=O)N[C@@H](Cc1c[nH]c2ccccc12)C(=O)N[C@H](CC(C)C)C(=O)N[C@@H](Cc1c[nH]c2ccccc12)C(=O)N[C@H](CC(C)C)C(=O)N[C@@H](Cc1c[nH]c2ccccc12)C(=O)N[C@H](CC(C)C)C(=O)N[C@@H](Cc1c[nH]c2ccccc12)C(=O)NCCO)C(C)C)C(C)C)C(C)C [compound 9000] (For-VGA[dL]A[dV]V[dV]W[dL]W[dL]W[dL]W-NHCH2CH2OH) | + |  | 1.21 | 7.4
10 | CC(C)C[C@@H](NC(=O)[C@H](C)NC(=O)CNC(=O)[C@@H](NC=O)C(C)C)C(=O)N[C@@H](C)C(=O)N[C@H](CC(C)C)C(=O)N[C@H](C(=O)N[C@H](CC(C)C)C(=O)N[C@@H](Cc1c[nH]c2ccccc12)C(=O)N[C@H](CC(C)C)C(=O)N[C@@H](Cc1c[nH]c2ccccc12)C(=O)N[C@@H](C(=O)N[C@@H](Cc1c[nH]c2ccccc12)C(=O)N[C@@H](C(=O)N[C@@H](Cc1c[nH]c2ccccc12)C(=O)NCCO)C(C)C)C(C)C)C(C)C [compound 11214] (For-VGA[dL]A[dL]V[dL]W[dL]W[dV]W[dV]W-NHCH2CH2OH) | - |  | 1.02 | 2.6
